Patent US20050085463A1 (priority 2003, published 2005)
Values belong to the compound of their own block, whether it stands above or below them.

Columns and labels:
M2 muscarinic receptor [1] = molecular target: T1, M2 muscarinic receptor (Homo sapiens, UniProt P08172); test: R-SAT agonist assay; details: R-SAT; relative to carbachol; No response/nr = no agonist activity up to 10 μM
T1 sequence (P08172 1-466): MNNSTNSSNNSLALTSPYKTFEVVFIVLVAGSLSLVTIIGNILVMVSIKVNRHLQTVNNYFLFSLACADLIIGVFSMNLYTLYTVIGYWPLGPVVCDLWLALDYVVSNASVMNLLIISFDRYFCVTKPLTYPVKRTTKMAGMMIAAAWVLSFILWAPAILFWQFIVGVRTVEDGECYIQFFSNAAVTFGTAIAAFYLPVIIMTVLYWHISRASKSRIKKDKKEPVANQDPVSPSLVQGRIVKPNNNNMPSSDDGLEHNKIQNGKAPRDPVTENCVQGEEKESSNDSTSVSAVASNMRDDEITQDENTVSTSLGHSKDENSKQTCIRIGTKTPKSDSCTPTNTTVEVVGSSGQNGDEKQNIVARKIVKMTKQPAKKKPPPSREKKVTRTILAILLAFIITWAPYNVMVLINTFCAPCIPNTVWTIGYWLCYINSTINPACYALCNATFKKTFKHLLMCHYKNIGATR

M4 muscarinic receptor [2] = molecular target: T2, M4 muscarinic receptor (Homo sapiens, UniProt P08173); test: R-SAT agonist assay; format: cell-based; parameters: expressed in transfected cells; host or cells: NIH/3T3; details: relative to carbachol, No response/nr = no agonist activity up to 10 μM
T2 sequence (P08173 1-479): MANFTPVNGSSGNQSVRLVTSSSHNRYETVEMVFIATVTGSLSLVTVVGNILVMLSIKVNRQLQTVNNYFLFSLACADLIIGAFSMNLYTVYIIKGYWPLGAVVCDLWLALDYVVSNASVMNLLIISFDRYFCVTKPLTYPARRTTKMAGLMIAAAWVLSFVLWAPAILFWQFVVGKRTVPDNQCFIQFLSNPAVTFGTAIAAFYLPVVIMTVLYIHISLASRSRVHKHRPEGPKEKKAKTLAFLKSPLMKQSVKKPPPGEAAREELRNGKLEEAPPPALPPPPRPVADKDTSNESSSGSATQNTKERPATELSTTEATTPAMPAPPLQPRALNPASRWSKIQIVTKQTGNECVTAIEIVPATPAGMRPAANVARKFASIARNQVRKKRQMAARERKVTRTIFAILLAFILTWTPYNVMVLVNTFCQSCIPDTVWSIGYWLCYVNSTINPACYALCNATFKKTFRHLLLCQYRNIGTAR

M5 muscarinic receptor [3] = molecular target: T3, M5 muscarinic receptor (Homo sapiens, UniProt P08912); test: R-SAT agonist assay; format: cell-based; parameters: expressed in transfected cells; host or cells: NIH/3T3; details: R-SAT; relative to carbachol; No response/nr = no agonist activity up to 10 μM
T3 sequence (P08912 1-532): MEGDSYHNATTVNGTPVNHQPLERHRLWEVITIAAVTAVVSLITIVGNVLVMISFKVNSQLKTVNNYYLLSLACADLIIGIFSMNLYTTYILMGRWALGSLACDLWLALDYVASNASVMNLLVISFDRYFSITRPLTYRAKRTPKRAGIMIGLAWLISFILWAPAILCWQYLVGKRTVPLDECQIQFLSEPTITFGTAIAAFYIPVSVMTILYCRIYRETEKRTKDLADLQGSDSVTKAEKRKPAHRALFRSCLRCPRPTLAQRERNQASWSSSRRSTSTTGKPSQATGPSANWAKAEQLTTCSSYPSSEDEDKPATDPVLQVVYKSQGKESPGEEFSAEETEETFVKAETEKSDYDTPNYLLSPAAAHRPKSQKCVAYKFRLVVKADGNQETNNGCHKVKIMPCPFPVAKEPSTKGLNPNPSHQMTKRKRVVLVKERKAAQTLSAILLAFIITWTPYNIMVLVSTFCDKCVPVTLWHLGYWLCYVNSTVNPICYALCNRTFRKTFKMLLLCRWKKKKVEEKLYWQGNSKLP

M3 muscarinic receptor [4] = molecular target: T4, M3 muscarinic receptor (Homo sapiens, UniProt P20309); test: R-SAT competitive antagonist assay; format: cell-based; details: nr = no significant antagonist or inverse agonist activity up to 1 μM, nr* = nr but significant agonist activity
T4 sequence (P20309 whole entry): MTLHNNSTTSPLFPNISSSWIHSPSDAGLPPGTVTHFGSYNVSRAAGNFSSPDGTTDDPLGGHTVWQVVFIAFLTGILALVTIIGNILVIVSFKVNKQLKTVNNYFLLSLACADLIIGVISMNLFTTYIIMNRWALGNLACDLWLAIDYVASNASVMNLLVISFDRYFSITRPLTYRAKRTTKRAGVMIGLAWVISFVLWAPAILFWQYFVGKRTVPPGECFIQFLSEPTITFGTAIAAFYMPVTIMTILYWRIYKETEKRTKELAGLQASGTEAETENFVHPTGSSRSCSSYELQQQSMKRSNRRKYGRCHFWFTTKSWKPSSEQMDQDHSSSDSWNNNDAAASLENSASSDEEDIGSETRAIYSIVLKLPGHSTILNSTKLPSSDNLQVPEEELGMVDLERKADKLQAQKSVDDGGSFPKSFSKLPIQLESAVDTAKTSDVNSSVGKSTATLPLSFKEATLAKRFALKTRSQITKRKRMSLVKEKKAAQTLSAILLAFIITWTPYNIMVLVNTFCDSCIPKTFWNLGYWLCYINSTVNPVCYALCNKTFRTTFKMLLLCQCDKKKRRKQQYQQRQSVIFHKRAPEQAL

[5] = molecular target: T5, α1A (Alpha 1A) adrenergic receptor (Homo sapiens, UniProt P35348); details: R-SAT; nr = no significant antagonist or inverse agonist activity up to 1 μM; nr* = nr but significant agonist activity
T5 sequence (P35348 1-466): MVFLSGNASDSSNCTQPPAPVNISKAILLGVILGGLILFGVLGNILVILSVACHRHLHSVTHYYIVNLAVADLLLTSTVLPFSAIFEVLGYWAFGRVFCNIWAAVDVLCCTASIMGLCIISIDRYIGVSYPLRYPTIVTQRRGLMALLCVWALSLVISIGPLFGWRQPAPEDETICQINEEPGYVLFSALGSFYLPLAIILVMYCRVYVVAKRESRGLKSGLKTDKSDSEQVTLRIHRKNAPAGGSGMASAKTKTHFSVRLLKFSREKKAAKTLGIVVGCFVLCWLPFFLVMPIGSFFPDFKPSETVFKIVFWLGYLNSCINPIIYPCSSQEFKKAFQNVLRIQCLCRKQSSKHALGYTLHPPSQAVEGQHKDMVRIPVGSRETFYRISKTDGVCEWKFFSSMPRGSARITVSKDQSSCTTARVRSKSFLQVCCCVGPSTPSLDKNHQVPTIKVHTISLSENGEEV

[6] = molecular target: T5, α1A (Alpha 1A) adrenergic receptor; test: cell-based
5-HT6A receptor = 5-HT6A receptor (Homo sapiens, UniProt P50406); test: R-SAT inverse agonist assay; details: R-SAT; nr = no significant antagonist or inverse agonist activity up to 1 μM
Chain of 5-HT6A receptor (P50406 whole entry): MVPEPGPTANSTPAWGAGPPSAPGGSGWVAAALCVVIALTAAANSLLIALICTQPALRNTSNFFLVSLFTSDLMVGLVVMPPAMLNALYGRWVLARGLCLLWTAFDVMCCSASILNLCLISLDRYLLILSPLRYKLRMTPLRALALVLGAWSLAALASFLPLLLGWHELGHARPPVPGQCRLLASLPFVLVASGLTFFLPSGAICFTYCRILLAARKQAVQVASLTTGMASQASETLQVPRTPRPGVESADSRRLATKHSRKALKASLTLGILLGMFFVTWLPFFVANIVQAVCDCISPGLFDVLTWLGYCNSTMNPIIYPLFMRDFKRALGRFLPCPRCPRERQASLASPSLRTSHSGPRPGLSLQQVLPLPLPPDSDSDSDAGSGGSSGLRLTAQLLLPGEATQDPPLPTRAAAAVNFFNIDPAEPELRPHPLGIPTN

5-HT7A receptor = 5-HT7A receptor (Homo sapiens, UniProt P34969); test: R-SAT inverse agonist assay
Chain of 5-HT7A receptor (P34969 1-445 isoform P34969-2): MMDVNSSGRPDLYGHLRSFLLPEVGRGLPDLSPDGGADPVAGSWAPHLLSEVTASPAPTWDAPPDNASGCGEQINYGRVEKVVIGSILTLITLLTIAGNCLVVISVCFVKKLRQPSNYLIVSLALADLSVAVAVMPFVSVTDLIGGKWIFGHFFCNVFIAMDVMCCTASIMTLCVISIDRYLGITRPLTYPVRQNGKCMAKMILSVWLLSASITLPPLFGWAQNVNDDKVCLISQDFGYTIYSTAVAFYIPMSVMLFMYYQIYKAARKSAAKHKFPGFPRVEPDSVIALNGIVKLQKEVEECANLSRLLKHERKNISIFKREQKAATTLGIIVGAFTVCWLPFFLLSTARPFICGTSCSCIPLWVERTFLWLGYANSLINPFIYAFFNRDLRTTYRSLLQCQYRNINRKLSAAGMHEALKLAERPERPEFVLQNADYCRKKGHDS

5-HT1A receptor [7] = molecular target: T6, 5-HT1A receptor (Homo sapiens, UniProt P08908); test: R-SAT competitive antagonist assay
T6 sequence (P08908 1-422): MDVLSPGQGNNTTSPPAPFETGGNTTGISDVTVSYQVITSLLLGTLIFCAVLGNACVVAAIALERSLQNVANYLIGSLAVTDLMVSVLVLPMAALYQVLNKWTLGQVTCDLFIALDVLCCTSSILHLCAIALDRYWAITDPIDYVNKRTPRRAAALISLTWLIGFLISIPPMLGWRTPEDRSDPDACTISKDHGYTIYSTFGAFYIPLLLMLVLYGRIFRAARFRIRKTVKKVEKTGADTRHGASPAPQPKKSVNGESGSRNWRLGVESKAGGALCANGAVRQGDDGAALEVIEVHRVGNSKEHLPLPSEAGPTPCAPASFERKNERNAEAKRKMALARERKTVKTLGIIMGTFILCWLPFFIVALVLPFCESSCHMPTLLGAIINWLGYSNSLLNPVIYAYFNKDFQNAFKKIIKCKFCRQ

M4 muscarinic receptor [8] = molecular target: T2, M4 muscarinic receptor; test: R-SAT competitive antagonist assay; details: nr = no significant antagonist or inverse agonist activity up to 1 μM, nr* = nr but significant agonist activity
M5 muscarinic receptor [9] = molecular target: T3, M5 muscarinic receptor; test: R-SAT competitive antagonist assay; details: nr = no significant antagonist or inverse agonist activity up to 1 μM, nr* = nr but significant agonist activity
M1 muscarinic receptor [10] = molecular target: T7, M1 muscarinic receptor (Homo sapiens, UniProt P11229); test: R-SAT competitive antagonist assay; format: cell-based; parameters: expressed in transfected cells; host or cells: NIH/3T3; details: nr = no significant antagonist or inverse agonist activity up to 1 μM, nr* = nr but significant agonist activity
T7 sequence (P11229 1-460): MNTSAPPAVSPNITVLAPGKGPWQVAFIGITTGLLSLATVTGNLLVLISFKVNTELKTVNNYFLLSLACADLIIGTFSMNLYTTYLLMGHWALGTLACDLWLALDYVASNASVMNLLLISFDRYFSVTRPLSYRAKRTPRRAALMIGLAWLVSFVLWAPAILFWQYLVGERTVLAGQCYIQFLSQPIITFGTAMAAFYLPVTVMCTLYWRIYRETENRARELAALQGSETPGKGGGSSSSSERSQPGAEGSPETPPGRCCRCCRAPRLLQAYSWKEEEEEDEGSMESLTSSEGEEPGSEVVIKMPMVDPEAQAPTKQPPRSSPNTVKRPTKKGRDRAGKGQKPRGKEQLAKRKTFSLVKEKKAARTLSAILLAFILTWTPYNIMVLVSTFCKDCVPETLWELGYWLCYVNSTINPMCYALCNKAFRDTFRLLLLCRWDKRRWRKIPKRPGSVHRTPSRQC

M2 muscarinic receptor [11] = molecular target: T1, M2 muscarinic receptor; test: R-SAT competitive antagonist assay; format: cell-based; parameters: expressed in transfected cells; host or cells: NIH/3T3; details: nr = no significant antagonist or inverse agonist activity up to 1 μM, nr* = nr but significant agonist activity
5-HT1A receptor [12] = molecular target: T6, 5-HT1A receptor; test: R-SAT agonist assay; format: cell-based; parameters: expressed in transfected cells; host or cells: NIH/3T3; details: relative to 8-OH-DPAT
M1 muscarinic receptor [13] = molecular target: T7, M1 muscarinic receptor; test: R-SAT agonist assay; format: cell-based; parameters: expressed in transfected cells; host or cells: NIH/3T3
[14] = tested on: apomorphine-induced climbing; test: Reversal of apomorphine-induced climbing; details: s.c.
[15] = tested on: MK-801-induced hyperactivity; test: Reversal of MK-801-induced hyperactivity; format: in vivo, Non-Swiss Albino (NSA) mice
Excerpt: Clinically effective antipsychotic drugs can block the behavioral effects of non-competitive N-methyl-D-aspartate […], such as MK-801. […]. […]

[16] = tested on: amphetamine-induced hyperactivity; test: Reversal of amphetamine-induced hyperactivity; format: in vivo, Non-Swiss Albino (NSA) mice; details: p.o.
[17] = Serum levels during clozapine treatment of schizophrenic patients; format: in vivo, human
Experimental: The analysis was adjusted for baseline level of symptom severity, age, and dose, since dose was not fixed. […] Regarding co-treatment with anticholinergic agents, only two subjects in this sample were treated with benztropine. […] Lastly, ten of the patients in this study were treated with benzodiazepines at the time the levels of clozapine and NDMC were measured.
Patients were classified as treatment resistant or not by standard criteria (Kane et al 1988), and clinical ratings and neuropsychological test scores were obtained by trained raters who were blinded to plasma drug levels.

[18] = molecular target: human monoaminergic receptors; test: R-SAT functional profiling; format: cell-based; details: data not shown
Excerpt: It has long been appreciated that antagonism of central muscarinic receptors can attenuate the EPS induced by antipsychotics (Miller and Hiley 1974). […] .

M3 muscarinic receptor [19] = molecular target: T4, M3 muscarinic receptor; test: R-SAT agonist assay; details: R-SAT; relative to carbachol; No response/nr = no agonist activity up to 10 μM
[20] = clozapine-treated schizophrenics
[21] = clozapine-treated treatment resistant schizophrenics

Structure (SMILES): Cc1cc2c(s1)Nc1ccccc1N=C2N1CCN(C)CC1 [Olanzapine]
M2 Efficacy (M2 muscarinic receptor [1]): No response
M4 Efficacy (M4 muscarinic receptor [2]): No response
M5 Efficacy (M5 muscarinic receptor [3]): No response

pKi M3, competitive antagonist (M3 muscarinic receptor [4]): nr
pKi α1A, competitive antagonist [5]: 7.4 ± 0.2
Ki [6]: 39.8 nM
pEC50 5HT6A, inverse agonist (5-HT6A receptor): nr
EC50 (5-HT7A receptor): 50.1 nM
pEC50 5HT7A, inverse agonist (5-HT7A receptor; R-SAT, nr = no significant antagonist or inverse agonist activity up to 1 μM): 7.3 ± 0.1
Ki (5-HT1A receptor [7]): > 1000 nM
pKi 5-HT1A, competitive antagonist (5-HT1A receptor [7]; R-SAT, nr = no significant antagonist or inverse agonist activity up to 1 μM, nr* = nr but significant agonist activity): nr* and nr*^2
pKi M4, competitive antagonist (M4 muscarinic receptor [8]): nr
pKi M5, competitive antagonist (M5 muscarinic receptor [9]): nr
pKi M1, competitive antagonist (M1 muscarinic receptor [10]): nr
pKi M2, competitive antagonist (M2 muscarinic receptor [11]): nr
agonist efficacy at human 5-HT1A receptors (5-HT1A receptor [12]): < 30%
Structure (SMILES): O=C1Cc2cc(CCN3CCN(c4nsc5ccccc45)CC3)c(Cl)cc2N1 [Ziprasidone, reference compound]

EC50 (M1 muscarinic receptor [13]; R-SAT functional agonist screen of 462-compound library, read-out: EC50 at human M1 receptor): > 1000 nM
Structure (SMILES): Cc1ccc(C2(O)CCN(CCCC(=O)c3ccc(F)cc3)CC2)cc1 [Moperone, reference compound]

Structure (SMILES): O=C(CCCN1CCC(O)(c2ccc(Cl)cc2)CC1)c1ccc(F)cc1 [Haloperidol]
dose that completely attenuated apomorphine-induced climbing [14]: 0.1 mg/kg

Serum level, All Subjects at 6 Months (92) [17, 20]: 365 ± 285 ng/mL
Serum level, All Subjects at 6 Weeks (86) [17, 20]: 287 ± 190 ng/mL
Serum level, Non-Responders (25) [17, 21]: 268 ± 207 ng/mL
Serum level, Responders (26) [17, 21]: 453 ± 328 ng/mL
Serum level, All TR Subjects (59) ([17]; clozapine-treated treatment resistant schizophrenics, drawn 12 hours after last clozapine dose): 393 ± 301 ng/mL
M2 Efficacy (M2 muscarinic receptor [1]): 65 ± 8%
M5 Efficacy (M5 muscarinic receptor [3]): No response and nr
Structure (SMILES): CN1CCN(C2=Nc3cc(Cl)ccc3Nc3ccccc32)CC1 [Clozapine, 8-chloro-11-(4-methyl-1-piperazinyl)-5H-dibenzo [b,e][1,4] diazepine, reference compound]
minimal effective dose, attenuation of MK-801-induced hyperactivity ([15]; p.o.): 3 mg/kg
minimal effective dose, attenuation of MK-801-induced hyperactivity ([15]; s.c.): 1 mg/kg
minimal effective dose, reduction of amphetamine-induced hyperactivity [16]: 3 mg/kg
minimal effective dose, reduction of apomorphine-induced climbing [14]: 10 mg/kg

pKi, functional activity at human monoaminergic receptors [18]: < 6.0
Structure (SMILES): C[N+]1([O-])CCN(C2=Nc3cc(Cl)ccc3Nc3ccccc32)CC1 [clozapine-N-oxide]

M4 Efficacy (M4 muscarinic receptor [2]): 116 ± 9%
M5 Efficacy (M5 muscarinic receptor [3]): 86 ± 12%
Structure (SMILES): CCCCCCOc1nsnc1C1=CCCN(C)C1 [Xanomeline]

M4 Efficacy (M4 muscarinic receptor [2]): 96 ± 3%
M5 Efficacy (M5 muscarinic receptor [3]): 105 ± 3%
Structure (SMILES): C[N+](C)(C)CCOC(N)=O [Carbachol]

Structure (SMILES): Cc1cc2c(s1)Nc1ccccc1N=C2N1CCNCC1 [N-desmethylolanzapine]
M2 Efficacy (M2 muscarinic receptor [1]): No response
M3 Efficacy (M3 muscarinic receptor [19]): No response
M1 Efficacy (M1 muscarinic receptor [13]; R-SAT, relative to carbachol, No response/nr = no agonist activity up to 10 μM): No response
M4 Efficacy (M4 muscarinic receptor [2]): No response
M5 Efficacy (M5 muscarinic receptor [3]): No response
